In paper PMC8280143, “A novel dephosphorylation targeting chimera selectively promoting tau removal in tauopathies” (Signal Transduction and Targeted Therapy, 2021):
“Also recorded” adds a separate entry of the source.

Key:
[1] = system: tau aggregation; assay: Thioflavin T staining of tau aggregation in the DG of Tau368 mice; assay type: in vivo, mouse; settings: DEPTAC for a consecutive month after stopping dox; **p < 0.01, n = 4–5 mice
Method: For 2-month male C57BL/6 mice, 10 mM FITC-labeled or unlabeled-DEPTAC were directly injected through the tail vein or lateral ventricle for the evaluation of BBB-penetrability. For 9-month 3×Tg AD mice or Tau368 (20–30 g body weight), unlabeled-DEPTAC (5 mM, 1 μL for each time) was delivered for once into the lateral ventricle through direct stereotaxic injection, or repeatedly administrated through guiding cannulas (RWD, Shenzhen, China) implanted into the lateral ventricle once every 3 days for a consecutive month to test its dephosphorylation efficiency. Mice were restricted in a custom designed device and stayed awake during drug administration, and sacrificed at 24 h post the single or last DEPTAC administration.
Free-floating brain sections were washed with Tris-buffered saline (TBS) for 3 × 5 min, and then incubated with 0.3% Thioflavin T (Sigma) dissolved in 50% ethanol at room temperature for 10 min. The sections were then decolorized in 50% ethanol for 3 × 5 min, washed in TBS, and subsequently co-stained with DAPI for 10 min.

[2] = system: tau and PP2A-B; assay: Co-immunoprecipitation of DEPTAC with tau and PP2A-B in primary neurons; assay type: cell-based; settings: primary cultured rat neurons
Method: (§1) Primary hippocampal neurons were prepared from E12–E15 days SD rat embryos. Briefly, pregnant rats were acutely executed, hippocampus was dissected on ice and gently minced in DME/F12 (Hyclone) then suspended in 0.125% (vol/vol) trypsin solution at 37 °C for 20 min. Enzymatic activity was stopped by fetal bovine serum. Neurons were initially kept in 10% FBS-containing DME/F12 for 4–6 h, and subsequently cultured in Neurobasal (Hyclone) with 2% B27, 1% glutamax and 1% penicillin–streptomycin (Thermo Fisher Scientific) in dishes pre-coated with 100 μg/mL poly-D-lysine. Serum was gradually removed by replacing half of the medium for each time within the following 2 days. Especially, to inhibit the proteasome-dependent proteolysis, the cultured hippocampal neurons were treated with 5 μM MG132 for 5 h before harvest.
For co-immunoprecipitation, cultured cells were lysed on ice with RIPA buffer for 10 min containing 1:100 PMSF. Protein samples were incubated with protein G agarose (Beyotime) at 4 °C for 2 h, and then centrifuged for 5 min (4 °C, 12,000 rpm). Supernatants were subsequently incubated with specified antibodies and protein G agarose overnight at 4 °C. […] Immunoprecipitants were subsequently analyzed through Western blotting.

[3] = system: Tau368 mice; assay: Morris water maze test; assay type: in vivo, mouse
Description: Morris water maze tests began 3 days after the novel-object recognition tests. Briefly, mice were trained to find a hidden platform submerged under water in a Morris water maze (1.2 m in diameter) for five consecutive days with three trials per day. Visual cues outside the pool remained constant. In each trial, mice were pseudorandomly placed, facing the pool wall, in one of the three quadrants without platform and allowed to freely seek the hidden platform within 60 s. […] The traveling path of each mouse was recorded and analyzed online using an MWZ-100 video-tracking system (Techman, China). At day 6, each mouse was tested for 60 s in the water maze with the hidden platform removed. Videos were recorded using recorded and time of mice stayed in, and number of entries into the target quadrant previously place the platform were analyzed using MWZ-100 and ANY-maze video tracking system (Stoelting).

[4] = system: MAP2; assay: MAP2 level in primary neurons; assay type: cell-based
Method: Cultured cells or hippocampus tissues were collected on ice, and homogenized with RIPA lysis buffer containing 50 mM Tris-HCl, 100 mM NaCl, 1% Triton X-100, 5 mM EDTA, and 1:100 PMSF, and then centrifuged at 12,000 × g for 20 min. The supernatant was collected for the analysis of soluble proteins. In some experiments, the pellets were further incubated with 8% SDS buffer at 37 °C and then ultrasound for 60 times to reach a complete resuspension for the analysis of insoluble tau. Protein concentration was measured through BCA assays (Thermo Fisher). Equal amount of protein from each sample were separated in SDS-PAGE gels, and then transferred onto nitrocellulose or 0.22 μm polyvinylidene fluoride membranes (Merck Millipore). […] Blots were visualized using ECL luminol reagent (P0018FS, Beyotime), and quantified using ImageJ software.

[5] = system: primary rat hippocampal neurons; assay: Cell penetrability assessment in cultured primary hippocampal neurons; assay type: in vitro ADME; settings: FITC-labeled DEPTAC 100 μM, 24 h, fixed; laser-scanning microscopy (fluorescence)
Method: as §1
FITC-labeled DEPTAC (100 μM) was dissolved in sterilized water, and administrated into the medium of cultured primary rat hippocampal neurons for 24 h. Neurons were fixed with 4% paraformaldehyde, co-stained with DAPI (Beyotime), and then washed with PBS for 3 × 5 min. FITC was observed under a laser-scanning microscopy (Zeiss).

[6] = dox-treated Tau368 mice, day 6, platform removed, *p < 0.05

(1) YQQYQDATADEQG, originates from the porcine β-tubulin 422–434 for recognizing and binding tau proteins.[5],[6] (2) GSGS, a linker for increasing the flexibility of the peptide.[15] (3) KKVAVVRTPPKSP, for recruiting PP2A-Bα,[16] and (4) RRRRRRRR [DEPTAC, DEPhosphorylation TArgeting Chimera; 38 amino acid residues, C185H314N72O56]
thioflavin T (ThT)-stained tau aggregation in the DG [1]: ameliorated | total tau level over time ([2]; 6–24 h of post-DEPTAC treatment): time-dependent decrease; also recorded: gradual decrease | co-immunoprecipitation of DEPTAC with tau and PP2A-B ([2]; DEPTAC antibody, 24 h / 12 h (b9)): detected; also recorded: confirmed | spatial learning and memory in control mice ([3]; control mice without human tau accumulation (NW)): only limitedly affected; also recorded: did not statistically change | spatial learning deficit in Morris water maze ([3]; dox-treated Tau368 mice, **p < 0.01, *p < 0.05): rescued; also recorded: significantly alleviated | spatial memory impairment in Morris water maze ([3]; dox-treated Tau368 mice, day 6, platform removed): rescued; also recorded: attenuated | number of entries into the target quadrant [3, 6]: increased | time staying in the target quadrant [3, 6]: increased | level of MAP2 ([4]; Supplementary Fig. S3, specificity to tau): did not change | selectivity to tau proteins ([4]; discussion): considerable selectivity to tau proteins | neuron penetrability in vitro [5]: high neuron penetrability; also recorded: High cell penetrability
